Experimental data taken from patent US6576260B2 (Gruenenthal GmbH, priority 1999, dated 2003).

Experiment: Intrinsic active substance release in water (USP <1087> intrinsic dissolution)
Assay type: physicochemical
Conditions: demineralized water, 37° C.±0.5° C.; gradient of cumulative release up to 10% released
Experimental: The intrinsic release of each of the two active substances is calculated from the gradient of the cumulative active substance release up to and including the time at which 10% of the […] have been released. It is given below as the release rate in mg·min^−1·cm^−2.

Row | Compound | Intrinsic release in water (release rate) [mg · min^−1 · cm^−2]
1 | COc1cccc(C2(O)CCCCC2CN(C)C)c1.O=C1NS(=O)(=O)c2ccccc21 (centres unmarked) [Tramadol saccharinate, tramadol saccharinate] | 2
2 | COc1cccc([C@@]2(O)CCCC[C@@H]2CN(C)C)c1.Cl (racemic) [Tramadol hydrochloride, (1RS,2RS)-2-[(dimethylamino)methyl]-1-(3-methoxyphenyl)cyclohexanol hydrochloride] | 21
